The record followed here is patent publication US9328106B2, “Cyclic ether pyrazol-4-yl-heterocyclyl-carboxamide compounds and methods of use” (Genentech, Inc., priority 2012, dated 2016).

Usually Ki stands for a dissociation constant, usually derived from enzyme kinetics or from competition with a known ligand.

SMILES strings stand for the structures.

The assay addresses PIM1 (Homo sapiens (Human), UniProt P11309). In words: biochemical. The class given is biochemical. The conditions noted are these: 20 pM PIM1, 1 μM FAM-peptide, 10 μM ATP, 90 minutes at room temperature; read-out: PIM1 LC3K (KI).

PIM1, sequence (P11309 whole entry): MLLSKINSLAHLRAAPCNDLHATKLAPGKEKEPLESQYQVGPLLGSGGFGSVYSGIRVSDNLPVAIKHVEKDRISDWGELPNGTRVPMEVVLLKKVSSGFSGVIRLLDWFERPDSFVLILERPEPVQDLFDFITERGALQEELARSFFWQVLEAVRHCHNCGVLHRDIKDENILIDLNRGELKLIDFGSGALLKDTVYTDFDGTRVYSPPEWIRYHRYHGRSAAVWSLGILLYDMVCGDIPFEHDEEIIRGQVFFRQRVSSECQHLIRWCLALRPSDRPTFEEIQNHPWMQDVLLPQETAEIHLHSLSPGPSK

As for `Cn1ncc(NC(=O)c2csc(-c3cccc(Cl)c3F)n2)c1[C@@H]1CC[C@@H](N)[C@H](F)CO1` [Example 308, N-(5-((2S,5R,6S)-5-amino-6-fluorooxepan-2-yl)-1-methyl-1H-pyrazol-4-yl)-2-(3-chloro-2-fluorophenyl)thiazole-4-carboxamide], the inhibition constant (Ki) was determined as 54 pM. For the compound `Cn1ncc(NC(=O)c2csc(-c3cccc(C(F)(F)F)n3)n2)c1[C@@H]1CC[C@@H](N)[C@H](F)CO1` [Example 314, N-(5-((2S,5R,6S)-5-amino-6-fluorooxepan-2-yl)-1-methyl-1H-pyrazol-4-yl)-2-(6-(trifluoromethyl)pyridin-2-yl)thiazole-4-carboxamide], the inhibition constant (Ki) was found to be 2080 pM. In the case of `CO[C@H]1CO[C@H](c2c(NC(=O)c3nc(-c4cc(F)cc(F)c4F)sc3N)cnn2C)CC[C@H]1N` [Example 263, 5-amino-N-(5-((2S,5R,6R)-5-amino-6-methoxyoxepan-2-yl)-1-methyl-1H-pyrazol-4-yl)-2-(2,3,5-trifluorophenyl)thiazole-4-carboxamide] it was 127 pM; in that of `COC(c1cc(F)c(-c2nc(C(=O)Nc3cnn(C)c3[C@@H]3CC[C@@H](N)[C@H](F)CO3)ccc2F)c(F)c1)C1CC1` (stereo partly drawn) [Example 213, N-(5-((2S,5R,6S)-5-amino-6-fluorooxepan-2-yl)-1-methyl-1H-pyrazol-4-yl)-6-(4-(cyclopropyl(methoxy)methyl)-2,6-difluorophenyl)-5-fluoropicolinamide], 78 pM. Then `COc1ccc(F)c(F)c1-c1nc(C(=O)Nc2cnn(C)c2[C@@H]2CC[C@@H](N)[C@@H](F)CO2)c(N)s1` [Example 277, 5-amino-N-(5-((2S,5R,6R)-5-amino-6-fluorooxepan-2-yl)-1-methyl-1H-pyrazol-4-yl)-2-(2,3-difluoro-6-methoxyphenyl)thiazole-4-carboxamide], with 143 pM; and `Cn1ncc(NC(=O)c2nc(-c3c(F)cccc3F)sc2N)c1[C@@H]1CC[C@@H](N)C(F)(F)CO1` [Example 168, 5-Amino-N-[5-[(2S,5R)-5-amino-6,6-difluoro-oxepan-2-yl]-1-methyl-pyrazol-4-yl]-2-(2,6-difluorophenyl)thiazole-4-carboxamide], with 13 pM; and `Cn1ncc(NC(=O)c2ccc(F)c(-c3c(F)cc(OC4CCOCC4)cc3F)n2)c1[C@@H]1CC[C@@H](N)[C@@H](F)CO1` [Example 188, N-(5-((2S,5R,6R)-5-Amino-6-fluorooxepan-2-yl)-1-methyl-1H-pyrazol-4-yl)-6-(2,6-difluoro-4-((tetrahydro-2H-pyran-4-yl)oxy)phenyl)-5-fluoropicolinamide], with 30 pM. Then `Cn1ncc(NC(=O)c2nc(-c3cc(Cl)ccc3F)sc2N)c1[C@@H]1CC[C@@H](N)[C@H](F)CO1` [Example 291, 5-amino-N-(5-((2S,5R,6S)-5-amino-6-fluorooxepan-2-yl)-1-methyl-1H-pyrazol-4-yl)-2-(5-chloro-2-fluorophenyl)thiazole-4-carboxamide], with 18 pM.

With `Cn1ncc(NC(=O)c2nc(-c3c(F)ccc(F)c3F)sc2N)c1[C@@H]1CC[C@@H](N)[C@@H](F)CO1` [Example 260, 5-amino-N-(5-((2S,5R,6R)-5-amino-6-fluorooxepan-2-yl)-1-methyl-1H-pyrazol-4-yl)-2-(2,3,6-trifluorophenyl)thiazole-4-carboxamide], the inhibition constant (Ki) came to 4 pM. Take `Cn1ncc(NC(=O)c2ccc(F)c(-c3cc(F)ccc3F)n2)c1[C@@H]1CC[C@@H](N)[C@H](F)CO1` [Example 222, N-(5-((2S,5R,6S)-5-amino-6-fluorooxepan-2-yl)-1-methyl-1H-pyrazol-4-yl)-6-(2,5-difluorophenyl)-5-fluoropicolinamide]: the inhibition constant (Ki) came to 161 pM.

Turning to `Cn1ncc(NC(=O)c2ccc(F)c(-c3c(F)cccc3F)n2)c1[C@@H]1CC[C@@H](N)[C@H](F)CO1` [Example 397, N-[5-[(2S,5R,6S)-5-amino-6-fluoro-oxepan-2-yl]-1-methyl-pyrazol-4-yl]-6-(2,6-difluorophenyl)-5-fluoro-pyridine-2-carboxamide], the Ki was found to be 16 pM. Turning to `Cn1ncc(NC(=O)c2csc(-c3c(F)cccc3Cl)n2)c1[C@@H]1CC[C@@H](N)[C@H](F)CO1` [Example 284, N-(5-((2S,5R,6S)-5-amino-6-fluorooxepan-2-yl)-1-methyl-1H-pyrazol-4-yl)-2-(2-chloro-6-fluorophenyl)thiazole-4-carboxamide], the Ki is 220 pM. Turning to `CO[C@H]1COC(c2c(NC(=O)c3nc(-c4c(F)cccc4F)sc3N)cnn2C)CC[C@@H]1N` (stereo partly drawn) [Example 128, 5-amino-N-(5-((5S,6R)-5-amino-6-methoxyoxepan-2-yl)-1-methyl-1H-pyrazol-4-yl)-2-(2,6-difluorophenyl)thiazole-4-carboxamide], the Ki was 476 pM. As to `Cn1ncc(NC(=O)c2csc(-c3c(F)cc(C4(O)CCOC4)cc3F)n2)c1[C@@H]1CC[C@@H](N)[C@H](F)CO1` (stereo partly drawn) [Example 215, N-(5-((2S,5R,6S)-5-amino-6-fluorooxepan-2-yl)-1-methyl-1H-pyrazol-4-yl)-2-(2,6-difluoro-4-(3-hydroxytetrahydrofuran-3-yl)phenyl)thiazole-4-carboxamide], the Ki was 7.62 pM. Then `Cn1ncc(NC(=O)c2nc(-c3cccc(F)c3C(F)(F)F)sc2N)c1[C@@H]1CC[C@@H](N)[C@@H](F)CO1` [Example 267, 5-amino-N-(5-((2S,5R,6R)-5-amino-6-fluorooxepan-2-yl)-1-methyl-1H-pyrazol-4-yl)-2-(3-fluoro-2-(trifluoromethyl)phenyl)thiazole-4-carboxamide], with 98 pM; and `Cn1ncc(NC(=O)c2nc(-c3c(F)cccc3F)sc2N)c1[C@]12CC[C@H](O1)[C@@H](O)CC2` [Example 106, 5-amino-2-(2,6-difluorophenyl)-N-(5-((1S,4S,5S)-4-hydroxy-8-oxabicyclo[3.2.1]octan-1-yl)-1-methyl-1H-pyrazol-4-yl)thiazole-4-carboxamide], with 32 pM. Take `Cn1ncc(NC(=O)c2nc(-c3c(F)cccc3F)sc2N)c1[C@H]1CC[C@H](N)C(F)(F)CO1` [Example 169, 5-Amino-N-[5-[(2R,5S)-5-amino-6,6-difluoro-oxepan-2-yl]-1-methyl-pyrazol-4-yl]-2-(2,6-difluorophenyl)thiazole-4-carboxamide]: the Ki was 341 pM.

As for `Cn1ncc(NC(=O)c2csc(-n3ncc4c3CCCC4)n2)c1[C@@H]1CC[C@@H](N)[C@H](F)CO1` [Example 389, N-(5-((2S,5R,6S)-5-amino-6-fluorooxepan-2-yl)-1-methyl-1H-pyrazol-4-yl)-2-(4,5,6,7-tetrahydro-1H-indazol-1-yl)thiazole-4-carboxamide], the inhibition constant Ki was found to be 20 pM.

With `Cn1ncc(NC(=O)c2nc(-c3c(F)cccc3F)sc2N)c1[C@@H]1CC[C@@H](CN)O1` (stereo in doubt) [Example 155, 5-Amino-N-[5-[5-(aminomethyl)tetrahydrofuran-2-yl]-1-methyl-pyrazol-4-yl]-2-(2,6-difluorophenyl)thiazole-4-carboxamide], the inhibition constant (Ki) was determined as 104 pM. Then `Cn1ncc(NC(=O)c2csc(-c3c(F)cncc3Cl)n2)c1[C@@H]1CC[C@@H](N)[C@H](F)CO1` [Example 349, N-(5-((2S,5R,6S)-5-amino-6-fluorooxepan-2-yl)-1-methyl-1H-pyrazol-4-yl)-2-(3-chloro-5-fluoropyridin-4-yl)thiazole-4-carboxamide], with 3120 pM; and `Cn1ncc(NC(=O)c2ccc(F)c(-c3c(F)cc(C4(F)COC4)cc3F)n2)c1[C@@H]1CC[C@@H](N)[C@H](F)CO1` [Example 194, N-(5-((2S,5R,6S)-5-amino-6-fluorooxepan-2-yl)-1-methyl-1H-pyrazol-4-yl)-6-(2,6-difluoro-4-(3-fluorooxetan-3-yl)phenyl)-5-fluoropicolinamide], with 22 pM; and `Cn1ncc(NC(=O)c2nc(-c3c(F)cccc3F)sc2N)c1[C@H]1OC[C@@](C)(CN)CO1` [Example 178, 5-Amino-N-[5-[5-(aminomethyl)-5-methyl-1,3-dioxan-2-yl]-1-methyl-pyrazol-4-yl]-2-(2,6-difluorophenyl)thiazole-4-carboxamide], with 155 pM. Then `Cn1ncc(NC(=O)c2nc(C3CCCC3)sc2N)c1[C@@H]1CC[C@@H](N)[C@@H](F)CO1` [Example 272, 5-amino-N-(5-((2S,5R,6R)-5-amino-6-fluorooxepan-2-yl)-1-methyl-1H-pyrazol-4-yl)-2-cyclopentylthiazole-4-carboxamide], with 992 pM; and `Cc1c(-c2nc(C(=O)Nc3cnn(C)c3[C@@H]3CC[C@@H](N)[C@H](F)CO3)c(N)s2)cnn1C` [Example 257, 5-amino-N-(5-((2S,5R,6S)-5-amino-6-fluorooxepan-2-yl)-1-methyl-1H-pyrazol-4-yl)-2-(1,5-dimethyl-1H-pyrazol-4-yl)thiazole-4-carboxamide], with 25 pM; and `Cn1ncc(NC(=O)c2ccc(F)c(-c3cccc(F)c3F)n2)c1[C@@H]1CC[C@@H](N)[C@H](F)CO1` [Example 223, N-(5-((2S,5R,6S)-5-amino-6-fluorooxepan-2-yl)-1-methyl-1H-pyrazol-4-yl)-6-(2,3-difluorophenyl)-5-fluoropicolinamide], with 83 pM. Regarding `Cn1ncc(NC(=O)c2nc(-c3c(F)cccc3F)sc2N)c1[C@H]1C[C@@H](N)CCO1` [Example 159, 5-Amino-N-[5-[(2R,4S)-4-aminotetrahydropyran-2-yl]-1-methyl-pyrazol-4-yl]-2-(2,6-difluorophenyl)thiazole-4-carboxamide], the Ki stood at 19 pM. Turning to `Cn1ncc(NC(=O)c2nc(-c3c(F)cccc3F)sc2N)c1C1CC(F)C(N)CCO1` (stereo not shown) [Example 140, 5-amino-N-(5-(5-amino-4-fluorooxepan-2-yl)-1-methyl-1H-pyrazol-4-yl)-2-(2,6-difluorophenyl)thiazole-4-carboxamide], the inhibition constant Ki turned out to be 469 pM.

`Cn1ncc(NC(=O)c2ccc(F)c(-c3c(F)cc(C(CO)CO)cc3F)n2)c1[C@@H]1CC[C@@H](N)[C@H](F)CO1` [Example 214, N-(5-((2S,5R,6S)-5-amino-6-fluorooxepan-2-yl)-1-methyl-1H-pyrazol-4-yl)-6-(4-(1,3-dihydroxypropan-2-yl)-2,6-difluorophenyl)-5-fluoropicolinamide]: the Ki worked out at 75 pM.
